Results taken from patent publication EP0035728A1, “Cytostatically active amino-polyols, medicaments containing these compounds and their use” (Henkel Kommanditgesellschaft auf Aktien, priority 1980, dated 1981).

Assays:
[1] = Cytostatic activity (test not described further); conditions: result in words, no test conditions given
[2] = test system: Tumorart P 388 (Leukämie); experiment: P 388 leukemia survival test in mice (NCI protocol 1200), T/C; format: in vivo, Mäusen; conditions: nine doses, P 388 set i.p. with 10^6 cells/mouse, survival vs untreated controls
Procedure: Die T/C-Werte dieser Verbindung bei ihrer Austestung am TumorP 388 (Leukämie) unter Standardprüfbedingungen betragen 166 % (100 mg/kg) bzw. 165 % (50 mg/kg).
Die nachfolgenden Versuche wurden durchgeführt nach Testvorschriften des National Cancer Intitute Bethesda; Maryland 200014, veröffentlicht in "Cancer Chemotherapy Reports" Part 3, September 1972, Vol. 3, Nr. 2. Als Wirksubstanz wurde das Di-(2-hydroxy-3-brompropan)-glucamin des Beispiels 1 verwendet. Die Substanz wurde als wäßrige 1-%ige Injektionslösung unmittelbar vor der Applikation frisch hergestellt.
Bei Mäusen wurde gemäß Protokoll 1200 (Seite 91.c.) die Tumorart P 388 (Leukämie) i.p. mit 10^6 Zellen/Maus gesetzt. Die mittlere Überlebensdauer der nicht mit dem erfindungsgemäßen Wirkstoff behandelten Tiere wurde bestimmt.
Einer weiteren Gruppe von Versuchstieren wird der Wirkstoff appliziert. Der Wirkstoff wird dabei in neun Gaben in unterschiedlichen Versuchsreihen einmal zu je 100 mg/kg und in einer weiteren Versuchsreihe zu je 50 mg/kg verabreicht. In allen Fällen wird eine signifikante Verlängerungs der Lebensdauer der behandelten Testtiere gegenüber der Kontrollgruppe der nicht behandelten Tiere erzielt.

CN(CC(O)CBr)C[C@H](O)[C@@H](O)[C@H](O)[C@H](O)CO (some centres unmarked) [N-Methyl-N-(2-hydroxy-3-brom-propyl)-glucamin]
cytostatische Wirksamkeit [1]: unwirksam

CN(CC(O)CCl)C[C@H](O)[C@@H](O)[C@H](O)[C@H](O)CO (some centres unmarked) [entsprechende 3-Chlorverbindung]
cytostatische Wirksamkeit [1]: unwirksam

Di-(2-hydroxy-3-brompropan)-glucamin [Beispiel 1]
Verlängerungsrate T/C ([2]; 50 mg/kg per dose): 165%
Verlängerungsrate T/C ([2]; 100 mg/kg per dose): 166%
cytostatische Wirksamkeit [1]: cytostatisch aktiv
